A short description of the data set: recombinant barcode read abundance after kanamycin selection (control-corrected) (log10(CPM+1)); higher = more efficient recombination; sequences stand for … in AGTGCAGAGAAAATCGGCCAGTTTTCTCTGCCTGCAGTCCGCATGCCGT…AGATTTATGCAGCGGACTGCCTTTCTCCCAAAGTGATAAACCGGACAGTATCATGGACCGGTTTTCCCGGTAATCCGTATTTGCAAGGTTGGTTTCACT; site = the 11-nt target. As to the method: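 Pooled E. coli target-specificity screen for the IS621 bridge recombinase. Each library plasmid pairs an 11-nt target (CT core) with a bridge RNA whose target-binding loop (9-nt LTG + 4-nt RTG) is reprogrammed; the rest of the 177-nt WT IS621 bridge RNA scaffold is fixed. The plasmid is co-electroporated with a WT donor plasmid; recombinase is induced with 0.1 mM IPTG and recombinants are selected on kanamycin. Recombinant barcodes are sequenced, converted to CPM, averaged over two biological replicates and corrected by the unselected control CPM. Molecule = full bridge RNA written as DNA: LTG = specificity nt 1-9, RTG = reverse complement of specificity nt 8-11, in the WT scaffold.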
As for “AACATTGCTTGGGTTCTAACCTGTTGCCT (site AACAGTGCTAG)”, the “recombinant barcode read abundance (log10)” value was determined as 0.372.
With “AACATTGCTTGGGTTCTAACCTGTTGCCT (site AACATTGCTAG)” the figure was 0.979; with “AACCATCCTTGGGTTCTAACCTGTTGCCT (site AACCAGCCTAG)”, 0.0589; with “AACCATCCTTGGGTTCTAACCTGTTGCCT (site AACCATCCTAG)”, 1.51.
For “AACCTTACTTGGGTTCTAACCTGTTGCCT (site AACCTTACTAG)”, the “recombinant barcode read abundance (log10)” value was 0.631.
Take “AACCTTACTTGGGTTCTAACCTGTTGCCT (site ACCCTTACTAG)”: the “recombinant barcode read abundance (log10)” value was 0.122.
The value for “AACCTTACTTGGGTTCTAACCTGTTGCCT (site AGCCTTACTAG)” was 0.0388; that for “AACCTTACTTGGGTTCTAACCTGTTGCCT (site ATCCTTACTAG)” was 0.0245; that for “AACGAGTCTTGGGTTCTAACCTGTTGCCT (site AACGAGTCTAG)” was 1.03.
The value for “AACGAGTCTTGGGTTCTAACCTGTTGCCT (site ACCGAGTCTAG)” was 0.152; that for “AACGAGTCTTGGGTTCTAACCTGTTGCCT (site AGCGAGTCTAG)” was 0.0187.
“AACGAGTCTTGGGTTCTAACCTGTTGCCT (site ATCGAGTCTAG)”: the “recombinant barcode read abundance (log10)” value was 0.244.
The value for “AACTAAACTTGGGTTCTAACCTGTTGCCT (site AACTAAACTAG)” was 1.02; that for “AACTAAACTTGGGTTCTAACCTGTTGCCT (site AACTCAACTAG)” was 0.0768; that for “AACTAAACTTGGGTTCTAACCTGTTGCCT (site AACTGAACTAG)” was 0.181.
With “AACTAAACTTGGGTTCTAACCTGTTGCCT (site AACTTAACTAG)”, the “recombinant barcode read abundance (log10)” value amounted to 0.0783.
Turning to “AACTATCCTTGGGTTCTAACCTGTTGCAT (site AACTATCCTAT)”, the “recombinant barcode read abundance (log10)” value was found to be 0.227.
The value for “AACTATCCTTGGGTTCTAACCTGTTGCAT (site AACTCTCCTAT)” was 0.109; that for “AACTATCCTTGGGTTCTAACCTGTTGCAT (site AACTGTCCTAT)” was 0.00638.
With “AACTATCCTTGGGTTCTAACCTGTTGCAT (site AACTTTCCTAT)” the figure was 0.196; with “AAGACAACTTGGGTTCTAACCTGTTGCGG (site AAGACAACTCC)”, 1.64; with “AAGACAACTTGGGTTCTAACCTGTTGCGG (site TGCCTGCCTAG)”, 0.042.
The value for “AAGACTCCTTGGGTTCTAACCTGTTGCCT (site AAGACTCCTAG)” was 0.824; that for “AAGACTCCTTGGGTTCTAACCTGTTGCCT (site AAGTCTCCTAG)” was 0.0612; that for “AAGAGCACTTGGGTTCTAACCTGTTGCCT (site AAGAGCACTAG)” was 1.17.
With “AAGAGCACTTGGGTTCTAACCTGTTGCCT (site CAGAGCACTAG)”, the “recombinant barcode read abundance (log10)” value came out at 0.0257.
The value for “AAGAGCACTTGGGTTCTAACCTGTTGCCT (site GAGAGCACTAG)” was 0.0862; that for “AAGAGCACTTGGGTTCTAACCTGTTGCCT (site TAGAGCACTAG)” was 0.315.
As for “AAGATAGCTTGGGTTCTAACCTGTTGCCT (site AAGAAAGCTAG)”, the “recombinant barcode read abundance (log10)” value came out at 0.192.
The value for “AAGATAGCTTGGGTTCTAACCTGTTGCCT (site AAGACAGCTAG)” was 0.147; that for “AAGATAGCTTGGGTTCTAACCTGTTGCCT (site AAGAGAGCTAG)” was 0.164; that for “AAGATAGCTTGGGTTCTAACCTGTTGCCT (site AAGATAGCTAG)” was 1.59.
The value for “AAGCCCACTTGGGTTCTAACCTGTTGCGG (site AAGCCCACTCC)” was 2.28; that for “AAGCCCACTTGGGTTCTAACCTGTTGCGG (site CGCGTTGCTAG)” was 0.561; that for “AAGCCGCCTTGGGTTCTAACCTGTTGCTT (site AAGCCGCCTAA)” was 0.906.
The value for “AAGCCGCCTTGGGTTCTAACCTGTTGCTT (site TCAATAGCTGT)” was 0.35.
With “AAGCTCCCTTGGGTTCTAACCTGTTGCCT (site AAGCTCCCTAG)”, the “recombinant barcode read abundance (log10)” value is 1.6.
The value for “AAGCTCCCTTGGGTTCTAACCTGTTGCCT (site ACACTCCCTAG)” was 0.242; that for “AAGGCCGCTTGGGTTCTAACCTGTTGCCT (site AAGGACGCTAG)” was 1.37.
With “AAGGCCGCTTGGGTTCTAACCTGTTGCCT (site AAGGCCGCTAG)” the figure was 1.79; with “AAGGCCGCTTGGGTTCTAACCTGTTGCCT (site AAGGGCGCTAG)”, 0.161; with “AAGGCCGCTTGGGTTCTAACCTGTTGCCT (site AAGGTCGCTAG)”, 0.259.
With “AAGGCGCCTTGGGTTCTAACCTGTTGCCT (site AAGGCGCCTAG)” the figure was 0.806; with “AAGGCGCCTTGGGTTCTAACCTGTTGCCT (site ACGGCGCCTAG)”, 0.11; with “AAGGCGCCTTGGGTTCTAACCTGTTGCCT (site AGGGCGCCTAG)”, 0.128.
For “AAGGCGCCTTGGGTTCTAACCTGTTGCCT (site ATGGCGCCTAG)”, the “recombinant barcode read abundance (log10)” value came out at 0.135.
With “AAGGGCTCTTGGGTTCTAACCTGTTGCTT (site AAGGGCTCTAA)” the figure was 2.72.
With “AAGGGCTCTTGGGTTCTAACCTGTTGCTT (site GTCTCTCCTCT)” the figure was 0.129; with “AAGGTCCCTTGGGTTCTAACCTGTTGCGG (site AAGGTCCCTCC)”, 3.32; with “AAGGTCCCTTGGGTTCTAACCTGTTGCGG (site TAGGTCCCTTC)”, 0.0703.
With “AAGGTGTCTTGGGTTCTAACCTGTTGCCT (site AAAGTGTCTAG)” the figure was 1.97.
Turning to “AAGGTGTCTTGGGTTCTAACCTGTTGCCT (site AACGTGTCTAG)”, the “recombinant barcode read abundance (log10)” value came to 0.736.
On to “AAGGTGTCTTGGGTTCTAACCTGTTGCCT (site AAGGTGTCTAG)”, for which the “recombinant barcode read abundance (log10)” value turned out to be 3.29.
The value for “AAGGTGTCTTGGGTTCTAACCTGTTGCCT (site AATGTGTCTAG)” was 0.45; that for “AAGTCCACTTGGGTTCTAACCTGTTGCTT (site AAGTCCACTAA)” was 0.856; that for “AAGTCCACTTGGGTTCTAACCTGTTGCTT (site TAGTCCACTTA)” was 0.093.
Regarding “AAGTGGTCTTGGGTTCTAACCTGTTGCTA (site AAGTGGTCTTA)”, the “recombinant barcode read abundance (log10)” value amounted to 1.46.
The value for “AAGTGGTCTTGGGTTCTAACCTGTTGCTA (site TGAGTCCCTCT)” was 0; that for “AAGTTGTCTTGGGTTCTAACCTGTTGCGT (site AAGTTGTCTAC)” was 2.77; that for “AAGTTGTCTTGGGTTCTAACCTGTTGCGT (site CAGTTGTCTAG)” was 0.0897.
As to “AATACCACTTGGGTTCTAACCTGTTGCCT (site AATACCACTAG)”, the “recombinant barcode read abundance (log10)” value was 0.576.
With “AATACCACTTGGGTTCTAACCTGTTGCCT (site AATCGCACTAG)” the figure was 0.186.
Regarding “AATAGGACTTGGGTTCTAACCTGTTGCGC (site AATAGGACTGC)”, the “recombinant barcode read abundance (log10)” value stood at 1.76.
With “AATAGGACTTGGGTTCTAACCTGTTGCGC (site ATTAGGACTTC)” the figure was 0.0105; with “AATATAGCTTGGGTTCTAACCTGTTGCTA (site AATATAGCTTA)”, 0.0685.
The value for “AATATAGCTTGGGTTCTAACCTGTTGCTA (site TTCCCCACTAG)” was 0.
The value for “AATCGAGCTTGGGTTCTAACCTGTTGCGG (site AATCGAGCTCC)” was 1.82; that for “AATCGAGCTTGGGTTCTAACCTGTTGCGG (site TCCGCTTCTAA)” was 0.0864.
With “AATCTCCCTTGGGTTCTAACCTGTTGCCT (site AATATGCCTAG)”, the “recombinant barcode read abundance (log10)” value came to 0.298.
The value for “AATCTCCCTTGGGTTCTAACCTGTTGCCT (site AATCTCCCTAG)” was 1.07.
Regarding “AATGAATCTTGGGTTCTAACCTGTTGCCT (site AATGAATCTAG)”, the “recombinant barcode read abundance (log10)” value came to 0.312.
The value for “AATGAATCTTGGGTTCTAACCTGTTGCCT (site AATGCATCTAG)” was 0.255; that for “AATGAATCTTGGGTTCTAACCTGTTGCCT (site AATGGATCTAG)” was 0.53.

The values are drawn from the supplement of paper PMC11208160.
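Also: IS621 recombinase and bridge RNA in Escherichia coli cells.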
